In patent publication US20230286970A1, “NOVEL OXADIAZOLE-BASED SELECTIVE HDAC6 INHIBITORS” (ITALFARMACO S.P.A., priority 2020, published 2023):

What was measured:
recombinant human HDAC6 = recombinant human HDAC6 (Homo sapiens (Human), UniProt Q9UBN7); test: Enzymatic screening, HDAC6 inhibition (fluorogenic FdL_G substrate); format: biochemical
Method in brief: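 Enzyme was preincubated with compound (8 doses, triplicate, 1% DMSO) in 25 mM Tris-HCl pH 8, 130 mM NaCl, 0.05% Tween-20, 10% glycerol, with BSA. A FLUOR DE LYS-Green substrate was then added, and fluorescence was read after developer plus 2 μM TSA.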

recombinant human HDAC1 = recombinant human HDAC1 (Homo sapiens (Human), UniProt Q13547); test: Enzymatic screening, HDAC1 inhibition (fluorogenic FdL_G substrate); format: biochemical
Method in brief: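 Recombinant human HDAC1 inhibition was measured fluorometrically using the FLUOR DE LYS-Green (FdL_G) substrate. Compounds at 8 doses (1% DMSO final) in Tris-HCl pH 8 buffer with NaCl, Tween-20 and glycerol were preincubated in triplicate with enzyme and 1 mg/mL BSA, then given substrate. Developer I plus 2 μM TSA was added, and fluorescence read after 25 minutes in the dark.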

Chain of recombinant human HDAC6 (Q9UBN7 whole entry): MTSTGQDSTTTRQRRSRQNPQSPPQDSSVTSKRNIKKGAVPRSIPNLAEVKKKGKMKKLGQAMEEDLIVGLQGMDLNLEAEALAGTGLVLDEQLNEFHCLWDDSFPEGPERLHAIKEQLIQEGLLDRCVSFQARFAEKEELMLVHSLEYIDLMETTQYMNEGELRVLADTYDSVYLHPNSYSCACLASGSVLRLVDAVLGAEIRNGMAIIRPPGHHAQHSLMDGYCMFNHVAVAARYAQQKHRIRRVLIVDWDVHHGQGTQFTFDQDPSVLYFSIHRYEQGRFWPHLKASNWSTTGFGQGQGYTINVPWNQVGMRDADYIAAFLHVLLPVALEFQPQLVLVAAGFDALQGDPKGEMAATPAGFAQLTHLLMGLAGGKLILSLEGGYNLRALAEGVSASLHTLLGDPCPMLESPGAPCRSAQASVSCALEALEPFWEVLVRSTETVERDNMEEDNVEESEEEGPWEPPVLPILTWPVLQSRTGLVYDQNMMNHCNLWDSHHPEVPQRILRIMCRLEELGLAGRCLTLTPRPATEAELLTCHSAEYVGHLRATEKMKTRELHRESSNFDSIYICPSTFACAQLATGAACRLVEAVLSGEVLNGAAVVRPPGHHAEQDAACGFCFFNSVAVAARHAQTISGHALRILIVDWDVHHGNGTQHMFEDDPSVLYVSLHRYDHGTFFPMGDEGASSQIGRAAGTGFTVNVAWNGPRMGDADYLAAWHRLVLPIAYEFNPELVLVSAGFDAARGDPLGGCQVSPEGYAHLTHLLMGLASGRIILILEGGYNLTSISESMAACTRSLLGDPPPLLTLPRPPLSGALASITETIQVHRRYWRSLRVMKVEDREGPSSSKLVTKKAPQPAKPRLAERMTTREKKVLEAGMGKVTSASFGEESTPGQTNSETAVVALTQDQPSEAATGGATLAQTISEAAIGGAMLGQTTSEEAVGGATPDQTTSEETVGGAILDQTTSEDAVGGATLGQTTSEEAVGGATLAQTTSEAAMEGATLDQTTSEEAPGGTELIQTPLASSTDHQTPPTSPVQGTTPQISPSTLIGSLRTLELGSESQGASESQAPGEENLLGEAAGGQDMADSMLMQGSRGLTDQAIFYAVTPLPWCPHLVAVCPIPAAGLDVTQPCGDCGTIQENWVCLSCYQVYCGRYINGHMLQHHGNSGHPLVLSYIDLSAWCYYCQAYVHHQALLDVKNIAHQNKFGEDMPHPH
Chain of recombinant human HDAC1 (Q13547 whole entry): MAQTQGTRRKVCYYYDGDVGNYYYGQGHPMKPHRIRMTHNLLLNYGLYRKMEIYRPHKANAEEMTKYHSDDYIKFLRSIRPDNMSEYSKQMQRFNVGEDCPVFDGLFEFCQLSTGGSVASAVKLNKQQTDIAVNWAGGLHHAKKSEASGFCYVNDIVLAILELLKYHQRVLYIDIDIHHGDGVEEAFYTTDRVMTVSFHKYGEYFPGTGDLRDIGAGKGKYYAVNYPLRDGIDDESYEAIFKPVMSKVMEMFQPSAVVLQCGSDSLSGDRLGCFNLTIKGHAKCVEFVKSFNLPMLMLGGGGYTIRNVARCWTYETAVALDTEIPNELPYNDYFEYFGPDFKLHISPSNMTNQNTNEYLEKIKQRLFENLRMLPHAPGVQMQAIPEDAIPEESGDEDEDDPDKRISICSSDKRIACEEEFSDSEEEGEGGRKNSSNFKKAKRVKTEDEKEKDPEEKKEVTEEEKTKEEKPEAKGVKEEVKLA

For `Nc1ccc(-c2cn([C@@H](CO)c3ccc(-c4nnc(C(F)F)o4)cc3)nn2)cn1` [compound 314, (2R)-2-[4-(6-aminopyridin-3-yl)triazol-1-yl]-2-[4-[5-(difluoromethyl)-1,3,4-oxadiazol-2-yl]phenyl]ethanol], the IC50 (recombinant human HDAC6) was 0.022 µM and the IC50 (recombinant human HDAC1) was > 1000 µM.
In the case of `Nc1ccc(-n2cc(Cc3ccc(-c4nnc(C(F)F)o4)cc3)nn2)cc1` [compound 315, 4-[4-[[4-[5-(difluoromethyl)-1,3,4-oxadiazol-2-yl]phenyl]methyl]triazol-1-yl]aniline], the IC50 (recombinant human HDAC6) is reported as 0.668 µM and the IC50 (recombinant human HDAC1) is reported as > 1000 µM.
`FC(F)c1nnc(-c2ccc(Cc3cn(-c4ccc(NC5=NCCN5)cc4)nn3)cc2)o1` [compound 316, N-(4-(4-(4-(5-(difluoromethyl)-1,3,4-oxadiazol-2-yl)benzyl)-1H-1,2,3-triazol-1-yl)phenyl)-4,5-dihydro-1H-imidazol-2-amine] was tested, and the IC50 (recombinant human HDAC6) was 0.056 µM and the IC50 (recombinant human HDAC1) was > 1000 µM.
`Nc1ncnc2cc(-c3cn(Cc4ccc(-c5nnc(C(F)F)o5)cn4)nn3)ccc12` [compound 317, 7-[1-[[5-[5-(difluoromethyl)-1,3,4-oxadiazol-2-yl]pyridin-2-yl]methyl]triazol-4-yl]quinazolin-4-amine] was tested, and the IC50 (recombinant human HDAC6) was 0.034 µM and the IC50 (recombinant human HDAC1) was > 1000 µM.
For `O=C1NCc2ccc(-c3cnn(Cc4ccc(-c5nnc(C(F)F)o5)cn4)c3)cc21` [compound 318, 6-[1-[[5-[5-(difluoromethyl)-1,3,4-oxadiazol-2-yl]pyridin-2-yl]methyl]pyrazol-4-yl]-2,3-dihydroisoindol-1-one], the IC50 (recombinant human HDAC6) was 0.04 µM and the IC50 (recombinant human HDAC1) was > 1000 µM.
`O=C1NCc2ccc(-c3cnn(Cc4ccc(-c5nnc(C(F)F)o5)cc4)c3)cc21` [compound 319, 6-[1-[[4-[5-(difluoromethyl)-1,3,4-oxadiazol-2-yl]phenyl]methyl]pyrazol-4-yl]-2,3-dihydroisoindol-1-one] was tested, and the IC50 (recombinant human HDAC6) was 0.087 µM and the IC50 (recombinant human HDAC1) was > 1000 µM.
In the case of `Cn1c(N)nc2cc(-c3cnn(Cc4ccc(-c5nnc(C(F)F)o5)cn4)c3)ccc21` [compound 320, 5-[1-[[5-[5-(difluoromethyl)-1,3,4-oxadiazol-2-yl]pyridin-2-yl]methyl]pyrazol-4-yl]-1-methylbenzimidazol-2-amine], the IC50 (recombinant human HDAC6) is reported as 0.028 µM and the IC50 (recombinant human HDAC1) is reported as > 1000 µM.
`Cn1c(N)nc2cc(-c3cnn(Cc4ccc(-c5nnc(C(F)F)o5)cc4)c3)ccc21` [compound 321, 5-[1-[[4-[5-(difluoromethyl)-1,3,4-oxadiazol-2-yl]phenyl]methyl]pyrazol-4-yl]-1-methylbenzimidazol-2-amine] was tested, and the IC50 (recombinant human HDAC6) was 0.098 µM and the IC50 (recombinant human HDAC1) was > 1000 µM.
For `Nc1nc2cc(-c3cn(Cc4ccc(-c5nnc(C(F)F)o5)cn4)cn3)ccc2s1` [compound 322, 5-[1-[[5-[5-(difluoromethyl)-1,3,4-oxadiazol-2-yl]pyridin-2-yl]methyl]imidazol-4-yl]-1,3-benzothiazol-2-amine], the IC50 (recombinant human HDAC6) was 0.017 µM and the IC50 (recombinant human HDAC1) was > 1000 µM.
Work on `Nc1ccc(-c2cn(C(CCN3CCCC3)c3ccc(-c4nnc(C(F)F)o4)cc3)nn2)cn1` (stereo not drawn) [compound 323, 5-(1-(1-(4-(5-(difluoromethyl)-1,3,4-oxadiazol-2-yl)phenyl)-3-(pyrrolidin-1-yl)propyl)-1H-1,2,3-triazol-4-yl)pyridin-2-amine] yielded an IC50 (recombinant human HDAC6) of 0.049 µM and an IC50 (recombinant human HDAC1) of 47.9 µM.
With `CC1(C)C(=O)Nc2ccc(-c3cn(Cc4ccc(-c5nnc(C(F)F)o5)cn4)nn3)cc21` [compound 324, 5-[1-[[5-[5-(difluoromethyl)-1,3,4-oxadiazol-2-yl]pyridin-2-yl]methyl]triazol-4-yl]-3,3-dimethyl-1H-indol-2-one] the IC50 (recombinant human HDAC6) was 0.018 µM and the IC50 (recombinant human HDAC1) was > 1000 µM.
With `O=C1Cc2cc(-c3cn(Cc4ccc(-c5nnc(C(F)F)o5)cn4)nn3)ccc2N1` [compound 325, 5-[1-[[5-[5-(difluoromethyl)-1,3,4-oxadiazol-2-yl]pyridin-2-yl]methyl]triazol-4-yl]-1,3-dihydroindol-2-one] the IC50 (recombinant human HDAC6) was 0.026 µM and the IC50 (recombinant human HDAC1) was > 1000 µM.
For `Nc1nc2ccc(-c3cnn(Cc4ccc(-c5nnc(C(F)F)o5)cc4)c3)cc2s1` [compound 326, 6-(1-(4-(5-(difluoromethyl)-1,3,4-oxadiazol-2-yl)benzyl)-1H-pyrazol-4-yl)benzo[d]thiazol-2-amine], the IC50 (recombinant human HDAC6) was 0.219 µM and the IC50 (recombinant human HDAC1) was > 1000 µM.
With `Nc1nc2ccc(-c3cnn(Cc4ccc(-c5nnc(C(F)F)o5)cn4)c3)cc2s1` [compound 327, 6-[1-[[5-[5-(difluoromethyl)-1,3,4-oxadiazol-2-yl]pyridin-2-yl]methyl]pyrazol-4-yl]-1,3-benzothiazol-2-amine] the IC50 (recombinant human HDAC6) was 0.04 µM and the IC50 (recombinant human HDAC1) was > 1000 µM.
`Cn1c(N)nc2cc(-c3cn(Cc4ccc(-c5nnc(C(F)F)o5)cn4)cn3)ccc21` [compound 328, 5-[1-[[5-[5-(difluoromethyl)-1,3,4-oxadiazol-2-yl]pyridin-2-yl]methyl]imidazol-4-yl]-1-methylbenzimidazol-2-amine] was tested, and the IC50 (recombinant human HDAC6) was 0.014 µM and the IC50 (recombinant human HDAC1) was > 1000 µM.
With `Cn1c(N)nc2cc(-c3cn(Cc4ccc(-c5nnc(C(F)F)o5)cc4)cn3)ccc21` [compound 329, 5-[1-[[4-[5-(difluoromethyl)-1,3,4-oxadiazol-2-yl]phenyl]methyl]imidazol-4-yl]-1-methylbenzimidazol-2-amine] the IC50 (recombinant human HDAC6) was 0.027 µM and the IC50 (recombinant human HDAC1) was > 1000 µM.
`Nc1ccc(-c2ncc(Cc3ccc(-c4nnc(C(F)F)o4)cc3)o2)cc1` [compound 330, 4-(5-(4-(5-(difluoromethyl)-1,3,4-oxadiazol-2-yl)benzyl)oxazol-2-yl)aniline] was tested, and the IC50 (recombinant human HDAC6) was 0.465 µM and the IC50 (recombinant human HDAC1) was > 1000 µM.
With `Nc1nc2cc(-c3cnn(Cc4ccc(-c5nnc(C(F)F)o5)cn4)c3)ccc2[nH]1` [compound 331, 5-[1-[[5-[5-(difluoromethyl)-1,3,4-oxadiazol-2-yl]pyridin-2-yl]methyl]pyrazol-4-yl]-1H-benzimidazol-2-amine] the IC50 (recombinant human HDAC6) was 0.052 µM and the IC50 (recombinant human HDAC1) was > 1000 µM.
In the case of `Nc1nc2cc(-c3cnn(Cc4ccc(-c5nnc(C(F)F)o5)cc4)c3)ccc2[nH]1` [compound 332, 5-[1-[[4-[5-(difluoromethyl)-1,3,4-oxadiazol-2-yl]phenyl]methyl]pyrazol-4-yl]-1H-benzimidazol-2-amine], the IC50 (recombinant human HDAC6) is reported as 0.067 µM and the IC50 (recombinant human HDAC1) is reported as > 1000 µM.
`NC(=O)c1cccc(-c2cnn(Cc3ccc(-c4nnc(C(F)F)o4)cc3)c2)c1` [compound 333, 3-[1-[[4-[5-(difluoromethyl)-1,3,4-oxadiazol-2-yl]phenyl]methyl]pyrazol-4-yl]benzamide] was tested, and the IC50 (recombinant human HDAC6) was 0.321 µM and the IC50 (recombinant human HDAC1) was > 1000 µM.
For `NC(=O)c1cccc(-c2cnn(Cc3ccc(-c4nnc(C(F)F)o4)cn3)c2)c1` [compound 334, 3-[1-[[5-[5-(difluoromethyl)-1,3,4-oxadiazol-2-yl]pyridin-2-yl]methyl]pyrazol-4-yl]benzamide], the IC50 (recombinant human HDAC6) was 0.065 µM and the IC50 (recombinant human HDAC1) was > 1000 µM.
`Nc1ccc(-c2cn(C(CCCO)c3ccc(-c4nnc(C(F)F)o4)cc3)nn2)cn1` (stereo not drawn) [compound 335, 4-(4-(6-aminopyridin-3-yl)-1H-1,2,3-triazol-1-yl)-4-(4-(5-(difluoromethyl)-1,3,4-oxadiazol-2-yl)phenyl)butan-1-ol] was tested, and the IC50 (recombinant human HDAC6) was 0.062 µM and the IC50 (recombinant human HDAC1) was > 1000 µM.
In the case of `O=C(Nc1cccc(-c2cn(Cc3ncc(-c4nnc(C(F)F)o4)cc3F)nn2)c1)N1CCOCC1` [compound 336, N-[3-[1-[[5-[5-(difluoromethyl)-1,3,4-oxadiazol-2-yl]-3-fluoropyridin-2-yl]methyl]triazol-4-yl]phenyl]morpholine-4-carboxamide], the IC50 (recombinant human HDAC6) is reported as 0.057 µM and the IC50 (recombinant human HDAC1) is reported as > 1000 µM.
With `O=C(Nc1cccc(-c2cn(Cc3ccc(-c4nnc(C(F)F)o4)cc3Cl)nn2)c1)N1CCOCC1` [compound 337, N-[3-[1-[[2-chloro-4-[5-(difluoromethyl)-1,3,4-oxadiazol-2-yl]phenyl]methyl]triazol-4-yl]phenyl]morpholine-4-carboxamide] the IC50 (recombinant human HDAC6) was 0.045 µM and the IC50 (recombinant human HDAC1) was > 1000 µM.
In the case of `O=C(Nc1cccc(-c2cn(Cc3ccc(-c4nnc(C(F)F)o4)c(F)c3F)nn2)c1)N1CCOCC1` [compound 338, N-[3-[1-[[4-[5-(difluoromethyl)-1,3,4-oxadiazol-2-yl]-2,3-difluorophenyl]methyl]triazol-4-yl]phenyl]morpholine-4-carboxamide], the IC50 (recombinant human HDAC6) is reported as 0.101 µM and the IC50 (recombinant human HDAC1) is reported as > 1000 µM.
With `Nc1nc2ccc(-c3cn(Cc4ccc(-c5nnc(C(F)F)o5)cc4F)nn3)cc2s1` [compound 339, 6-[1-[[4-[5-(difluoromethyl)-1,3,4-oxadiazol-2-yl]-2-fluorophenyl]methyl]triazol-4-yl]-1,3-benzothiazol-2-amine] the IC50 (recombinant human HDAC6) was 0.024 µM and the IC50 (recombinant human HDAC1) was > 1000 µM.
In the case of `Nc1nc2ccc(-c3cn(Cc4ccc(-c5nnc(C(F)F)o5)cc4Cl)nn3)cc2s1` [compound 340, 6-[1-[[2-chloro-4-[5-(difluoromethyl)-1,3,4-oxadiazol-2-yl]phenyl]methyl]triazol-4-yl]-1,3-benzothiazol-2-amine], the IC50 (recombinant human HDAC6) is reported as 0.041 µM and the IC50 (recombinant human HDAC1) is reported as > 1000 µM.
For `Nc1nc2ccc(-c3cn(Cc4ccc(-c5nnc(C(F)F)o5)c(F)c4F)nn3)cc2s1` [compound 341, 6-[1-[[4-[5-(difluoromethyl)-1,3,4-oxadiazol-2-yl]-2,3-difluorophenyl]methyl]triazol-4-yl]-1,3-benzothiazol-2-amine], the IC50 (recombinant human HDAC6) was 0.135 µM and the IC50 (recombinant human HDAC1) was > 1000 µM.
In the case of `Nc1nc2ccc(-c3cn(Cc4ncc(-c5nnc(C(F)F)o5)cc4F)nn3)cc2s1` [compound 342, 6-[1-[[5-[5-(difluoromethyl)-1,3,4-oxadiazol-2-yl]-3-fluoropyridin-2-yl]methyl]triazol-4-yl]-1,3-benzothiazol-2-amine], the IC50 (recombinant human HDAC6) is reported as 0.032 µM and the IC50 (recombinant human HDAC1) is reported as > 1000 µM.
`Nc1nc2ccc(-c3cn(Cc4cc(F)c(-c5nnc(C(F)F)o5)cc4F)nn3)cc2s1` [compound 343, 6-[1-[[4-[5-(difluoromethyl)-1,3,4-oxadiazol-2-yl]-2,5-difluorophenyl]methyl]triazol-4-yl]-1,3-benzothiazol-2-amine] was tested, and the IC50 (recombinant human HDAC6) was 0.031 µM and the IC50 (recombinant human HDAC1) was > 1000 µM.
